Common to all, as to experiment: Large panel kinase profiling
Holding throughout (type): biochemical
What all share (settings): 1 μM test article, 1 mM ATP

The target of one test is T1, CAMK4 (Homo sapiens, UniProt Q16566).
T1 construct: AssayQuant Technologies, Inc. (ran the panel)
T1 sequence (Q16566 1-473): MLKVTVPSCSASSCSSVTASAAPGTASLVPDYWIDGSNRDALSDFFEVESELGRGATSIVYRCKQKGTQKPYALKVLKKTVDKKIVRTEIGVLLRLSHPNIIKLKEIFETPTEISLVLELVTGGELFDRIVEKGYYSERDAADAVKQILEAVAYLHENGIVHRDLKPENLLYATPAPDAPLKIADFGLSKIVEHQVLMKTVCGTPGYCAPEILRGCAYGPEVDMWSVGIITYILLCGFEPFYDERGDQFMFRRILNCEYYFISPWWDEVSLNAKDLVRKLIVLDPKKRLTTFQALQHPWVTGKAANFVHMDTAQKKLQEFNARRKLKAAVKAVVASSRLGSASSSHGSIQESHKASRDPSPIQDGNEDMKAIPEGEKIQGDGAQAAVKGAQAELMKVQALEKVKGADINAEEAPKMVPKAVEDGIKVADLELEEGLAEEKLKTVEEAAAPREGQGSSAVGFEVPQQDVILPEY
The procedure, abridged: (§1)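 Steps: combine kinase, CSox-Sensor substrate, 1 mM ATP and 1 μM compound; seal and incubate at 30° C.; read top fluorescence kinetically each minute, Ex 360 nm/Em 485 nm.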

A further test addresses T2, CDK4/D3 (Homo sapiens, UniProt P11802).
T2 construct: AssayQuant Technologies, Inc. (ran the panel)
The procedure, abridged: as §1

A further test has as its target EPHA4 (Homo sapiens, UniProt P54764). In a few lines:
as §1

The target of another test is INSRR (Homo sapiens, UniProt P14616). In a few lines: as §1
The target of the next test is T3, PRKCE/PKCE (Homo sapiens, UniProt Q02156).
T3 sequence (Q02156 1-737): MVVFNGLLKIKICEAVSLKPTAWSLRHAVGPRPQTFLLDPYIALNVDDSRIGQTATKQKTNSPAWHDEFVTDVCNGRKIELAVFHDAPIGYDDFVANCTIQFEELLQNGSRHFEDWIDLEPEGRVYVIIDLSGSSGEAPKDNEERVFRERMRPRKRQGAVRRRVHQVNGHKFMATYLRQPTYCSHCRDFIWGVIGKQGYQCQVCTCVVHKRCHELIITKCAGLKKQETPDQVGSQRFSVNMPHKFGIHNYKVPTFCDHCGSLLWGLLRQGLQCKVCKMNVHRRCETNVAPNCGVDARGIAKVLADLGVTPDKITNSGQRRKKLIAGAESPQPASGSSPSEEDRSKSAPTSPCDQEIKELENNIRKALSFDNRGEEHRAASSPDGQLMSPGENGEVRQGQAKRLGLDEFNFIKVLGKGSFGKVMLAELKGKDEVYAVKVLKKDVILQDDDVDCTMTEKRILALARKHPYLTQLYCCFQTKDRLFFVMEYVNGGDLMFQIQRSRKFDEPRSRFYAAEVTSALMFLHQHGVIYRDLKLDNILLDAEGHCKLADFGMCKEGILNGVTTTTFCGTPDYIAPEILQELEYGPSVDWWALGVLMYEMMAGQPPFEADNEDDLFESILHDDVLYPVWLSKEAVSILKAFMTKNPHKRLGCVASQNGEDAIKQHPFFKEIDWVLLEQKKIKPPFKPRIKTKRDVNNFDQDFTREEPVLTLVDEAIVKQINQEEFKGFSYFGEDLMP
In a few lines: as §1

In another test the target is T4, PRKCZ/PKCZ (Homo sapiens, UniProt Q05513).
T4 sequence (Q05513 1-592): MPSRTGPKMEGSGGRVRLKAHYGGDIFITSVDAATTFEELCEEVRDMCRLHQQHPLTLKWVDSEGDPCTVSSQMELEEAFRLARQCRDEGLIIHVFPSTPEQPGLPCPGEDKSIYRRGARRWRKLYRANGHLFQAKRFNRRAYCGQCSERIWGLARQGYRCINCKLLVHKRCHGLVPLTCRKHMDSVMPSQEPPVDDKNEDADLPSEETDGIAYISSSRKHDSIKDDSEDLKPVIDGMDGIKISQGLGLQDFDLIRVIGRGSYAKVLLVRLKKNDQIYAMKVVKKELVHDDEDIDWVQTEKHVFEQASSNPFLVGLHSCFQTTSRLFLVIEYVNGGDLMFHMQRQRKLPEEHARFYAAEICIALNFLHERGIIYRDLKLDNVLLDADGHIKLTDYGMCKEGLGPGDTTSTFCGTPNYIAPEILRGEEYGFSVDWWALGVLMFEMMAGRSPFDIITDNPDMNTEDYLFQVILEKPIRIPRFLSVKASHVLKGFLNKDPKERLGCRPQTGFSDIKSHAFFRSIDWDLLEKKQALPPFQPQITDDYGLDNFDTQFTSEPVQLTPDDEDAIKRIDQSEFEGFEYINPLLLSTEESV
In a few lines: as §1

The next test has as its target T5, STK4/MST1 (Homo sapiens, UniProt Q13043).
T5 construct: AssayQuant Technologies, Inc. (contract assay)
T5 sequence (Q13043 1-487): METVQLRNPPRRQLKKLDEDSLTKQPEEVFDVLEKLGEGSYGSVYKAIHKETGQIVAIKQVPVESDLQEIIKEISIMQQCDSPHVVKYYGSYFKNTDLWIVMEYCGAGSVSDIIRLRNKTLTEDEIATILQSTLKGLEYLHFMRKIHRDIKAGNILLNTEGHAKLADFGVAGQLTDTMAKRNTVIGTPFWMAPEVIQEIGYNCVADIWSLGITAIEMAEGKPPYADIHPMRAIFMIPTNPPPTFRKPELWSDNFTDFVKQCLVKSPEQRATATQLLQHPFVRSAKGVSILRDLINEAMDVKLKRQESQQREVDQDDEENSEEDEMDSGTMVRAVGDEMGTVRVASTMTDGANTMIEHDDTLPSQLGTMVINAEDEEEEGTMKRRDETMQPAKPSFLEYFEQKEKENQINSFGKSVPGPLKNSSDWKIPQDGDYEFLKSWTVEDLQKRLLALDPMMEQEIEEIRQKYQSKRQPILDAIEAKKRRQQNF
The procedure, abridged: as §1

Chain of INSRR (P14616 27-1297, species assumed): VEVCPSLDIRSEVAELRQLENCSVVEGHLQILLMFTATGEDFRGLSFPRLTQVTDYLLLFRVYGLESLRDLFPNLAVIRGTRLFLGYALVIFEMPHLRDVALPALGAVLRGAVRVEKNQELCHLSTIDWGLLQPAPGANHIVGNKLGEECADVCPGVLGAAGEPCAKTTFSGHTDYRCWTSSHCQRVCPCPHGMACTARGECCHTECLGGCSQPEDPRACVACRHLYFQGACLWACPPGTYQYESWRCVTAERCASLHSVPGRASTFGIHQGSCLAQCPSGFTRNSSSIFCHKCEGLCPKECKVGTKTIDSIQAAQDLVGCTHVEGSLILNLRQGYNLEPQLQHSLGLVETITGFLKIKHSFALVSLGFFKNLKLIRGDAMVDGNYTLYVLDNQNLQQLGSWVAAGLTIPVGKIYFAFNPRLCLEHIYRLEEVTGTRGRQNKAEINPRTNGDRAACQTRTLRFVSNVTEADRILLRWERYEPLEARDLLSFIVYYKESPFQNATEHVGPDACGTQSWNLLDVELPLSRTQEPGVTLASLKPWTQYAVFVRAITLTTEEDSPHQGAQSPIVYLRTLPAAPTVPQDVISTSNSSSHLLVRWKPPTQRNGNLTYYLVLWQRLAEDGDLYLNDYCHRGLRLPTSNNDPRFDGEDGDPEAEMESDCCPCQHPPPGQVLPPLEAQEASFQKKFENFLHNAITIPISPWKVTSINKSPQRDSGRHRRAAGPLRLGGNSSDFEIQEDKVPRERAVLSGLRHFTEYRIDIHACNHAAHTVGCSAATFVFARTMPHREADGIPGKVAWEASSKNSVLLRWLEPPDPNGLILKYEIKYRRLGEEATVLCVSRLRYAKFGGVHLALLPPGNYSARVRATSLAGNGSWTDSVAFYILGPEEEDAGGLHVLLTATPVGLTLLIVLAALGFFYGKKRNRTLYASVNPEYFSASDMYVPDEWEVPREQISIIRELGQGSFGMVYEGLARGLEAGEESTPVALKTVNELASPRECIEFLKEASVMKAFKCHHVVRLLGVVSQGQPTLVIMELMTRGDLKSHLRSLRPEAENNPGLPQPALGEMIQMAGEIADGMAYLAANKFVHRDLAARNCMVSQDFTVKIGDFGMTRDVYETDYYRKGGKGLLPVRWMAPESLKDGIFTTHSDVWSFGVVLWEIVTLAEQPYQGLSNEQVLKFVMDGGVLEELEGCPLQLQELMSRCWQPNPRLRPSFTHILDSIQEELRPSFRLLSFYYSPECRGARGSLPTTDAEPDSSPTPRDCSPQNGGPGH
T2 sequence (P11802 whole entry, species assumed): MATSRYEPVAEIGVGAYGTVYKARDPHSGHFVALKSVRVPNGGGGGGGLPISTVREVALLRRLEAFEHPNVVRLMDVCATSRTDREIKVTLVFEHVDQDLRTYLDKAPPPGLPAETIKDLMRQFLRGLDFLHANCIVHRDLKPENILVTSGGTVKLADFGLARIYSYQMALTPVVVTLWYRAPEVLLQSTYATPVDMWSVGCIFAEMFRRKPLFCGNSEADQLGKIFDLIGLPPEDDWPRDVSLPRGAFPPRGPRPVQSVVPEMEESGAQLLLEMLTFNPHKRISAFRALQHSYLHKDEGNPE
T2 sequence (P30281 whole entry partner, species assumed): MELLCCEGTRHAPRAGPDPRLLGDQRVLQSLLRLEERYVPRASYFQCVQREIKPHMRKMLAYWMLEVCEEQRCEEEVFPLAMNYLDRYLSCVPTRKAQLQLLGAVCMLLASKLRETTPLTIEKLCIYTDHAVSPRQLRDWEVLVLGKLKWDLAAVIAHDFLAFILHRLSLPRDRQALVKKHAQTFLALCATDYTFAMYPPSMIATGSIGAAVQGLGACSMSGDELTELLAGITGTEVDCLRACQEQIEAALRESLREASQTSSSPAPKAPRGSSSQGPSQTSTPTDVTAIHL
Chain of EPHA4 (P54764 20-986, species assumed): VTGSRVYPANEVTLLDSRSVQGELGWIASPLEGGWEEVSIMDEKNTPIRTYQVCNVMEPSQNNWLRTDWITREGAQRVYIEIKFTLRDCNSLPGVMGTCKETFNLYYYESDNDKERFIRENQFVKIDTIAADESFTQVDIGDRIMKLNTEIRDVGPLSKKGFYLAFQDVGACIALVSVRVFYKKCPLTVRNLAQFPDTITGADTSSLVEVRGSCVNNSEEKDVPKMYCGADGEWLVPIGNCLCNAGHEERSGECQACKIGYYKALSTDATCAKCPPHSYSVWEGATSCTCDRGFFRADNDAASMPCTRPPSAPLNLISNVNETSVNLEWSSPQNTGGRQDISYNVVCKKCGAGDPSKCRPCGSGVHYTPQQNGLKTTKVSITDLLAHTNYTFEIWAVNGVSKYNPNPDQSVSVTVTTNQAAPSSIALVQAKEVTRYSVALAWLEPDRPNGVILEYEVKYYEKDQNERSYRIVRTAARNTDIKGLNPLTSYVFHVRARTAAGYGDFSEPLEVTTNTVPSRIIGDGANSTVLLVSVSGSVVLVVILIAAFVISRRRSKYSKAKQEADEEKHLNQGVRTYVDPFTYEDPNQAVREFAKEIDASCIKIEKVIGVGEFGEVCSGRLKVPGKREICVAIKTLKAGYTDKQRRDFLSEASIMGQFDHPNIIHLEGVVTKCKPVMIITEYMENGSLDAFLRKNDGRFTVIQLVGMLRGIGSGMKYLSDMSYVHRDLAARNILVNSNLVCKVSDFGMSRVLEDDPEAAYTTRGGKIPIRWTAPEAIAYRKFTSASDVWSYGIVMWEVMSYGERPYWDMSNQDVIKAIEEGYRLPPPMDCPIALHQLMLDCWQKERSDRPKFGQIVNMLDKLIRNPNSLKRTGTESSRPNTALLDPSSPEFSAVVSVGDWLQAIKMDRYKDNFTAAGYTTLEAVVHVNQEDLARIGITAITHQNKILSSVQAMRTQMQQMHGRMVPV

A word on the inhibition: it is the drop in the measured response relative to a control, in per cent. Consider `C=CC(=O)N1CCC[C@@H](c2c(F)cc(C(N)=O)c3[nH]c4c(c23)CCC4)C1` [Compound 10-2, (S)-8-(1-acryloylpiperidin-3-yl)-7-fluoro-1,2,3,4-tetrahydrocyclo-penta[b]indole-5-carboxamide], for which the inhibition at 1 µM at CAMK4 was 15.3%; against CDK4/D3 it was -19.5%; at EPHA4, -44.2%; at INSRR, -5.7%; on PRKCE/PKCE it was -3.5%; on PRKCZ/PKCZ, -4.2%. On STK4/MST1, the inhibition at 1 µM is 0.4%.
As for `C=CC(=O)N1CCCC(c2c(F)cc(C(N)=O)c3[nH]c4c(c23)CCCCC4)C1` (single isomer, unassigned) [Compound 5-6], the inhibition at 1 µM on CAMK4 was 15.7%; against CDK4/D3, -4.9%; against EPHA4, 4.2%; against INSRR it was 10.7%; on PRKCE/PKCE it was -3.2%; against PRKCZ/PKCZ it was -4%. Further, the inhibition at 1 µM against STK4/MST1 stood at 0.9%.
`C=CC(=O)N1CCC[C@@H](c2c(F)cc(C(N)=O)c3[nH]c4c(c23)CC2(CC4)CC2)C1` [Compound 6-2, (S)-5-(1-acryloylpiperidin-3-yl)-6-fluoro-1,2,4,9-tetrahydrospiro[carbazole-3,1′-cyclopropane]-8-carboxamide]: the inhibition at 1 µM was 26.6% against CAMK4; -13% on CDK4/D3; 4.9% against EPHA4; -54.1% against INSRR; 0% at PRKCE/PKCE; 8.5% against PRKCZ/PKCZ. On STK4/MST1, the inhibition at 1 µM was -9.5%.

(Values after patent US20220009920A1 (GB005, Inc., priority 2020, published 2022).)
